{"source": "patent US20100273769A1", "about": "“COMPOSITION AND METHOD FOR THE TREATMENT OF PARKINSON'S DISEASE” (priority 2009, published 2010)", "biological_target": "T1, G2019S mutant LRRK2 (Homo sapiens, UniProt Q5S007, G2019S)", "T1 construct": "of the mutant aa1326-2527 kinase fragment are used in the assays; GST; made in house", "T1 sequence (Q5S007 1326-2527 G2019S)": "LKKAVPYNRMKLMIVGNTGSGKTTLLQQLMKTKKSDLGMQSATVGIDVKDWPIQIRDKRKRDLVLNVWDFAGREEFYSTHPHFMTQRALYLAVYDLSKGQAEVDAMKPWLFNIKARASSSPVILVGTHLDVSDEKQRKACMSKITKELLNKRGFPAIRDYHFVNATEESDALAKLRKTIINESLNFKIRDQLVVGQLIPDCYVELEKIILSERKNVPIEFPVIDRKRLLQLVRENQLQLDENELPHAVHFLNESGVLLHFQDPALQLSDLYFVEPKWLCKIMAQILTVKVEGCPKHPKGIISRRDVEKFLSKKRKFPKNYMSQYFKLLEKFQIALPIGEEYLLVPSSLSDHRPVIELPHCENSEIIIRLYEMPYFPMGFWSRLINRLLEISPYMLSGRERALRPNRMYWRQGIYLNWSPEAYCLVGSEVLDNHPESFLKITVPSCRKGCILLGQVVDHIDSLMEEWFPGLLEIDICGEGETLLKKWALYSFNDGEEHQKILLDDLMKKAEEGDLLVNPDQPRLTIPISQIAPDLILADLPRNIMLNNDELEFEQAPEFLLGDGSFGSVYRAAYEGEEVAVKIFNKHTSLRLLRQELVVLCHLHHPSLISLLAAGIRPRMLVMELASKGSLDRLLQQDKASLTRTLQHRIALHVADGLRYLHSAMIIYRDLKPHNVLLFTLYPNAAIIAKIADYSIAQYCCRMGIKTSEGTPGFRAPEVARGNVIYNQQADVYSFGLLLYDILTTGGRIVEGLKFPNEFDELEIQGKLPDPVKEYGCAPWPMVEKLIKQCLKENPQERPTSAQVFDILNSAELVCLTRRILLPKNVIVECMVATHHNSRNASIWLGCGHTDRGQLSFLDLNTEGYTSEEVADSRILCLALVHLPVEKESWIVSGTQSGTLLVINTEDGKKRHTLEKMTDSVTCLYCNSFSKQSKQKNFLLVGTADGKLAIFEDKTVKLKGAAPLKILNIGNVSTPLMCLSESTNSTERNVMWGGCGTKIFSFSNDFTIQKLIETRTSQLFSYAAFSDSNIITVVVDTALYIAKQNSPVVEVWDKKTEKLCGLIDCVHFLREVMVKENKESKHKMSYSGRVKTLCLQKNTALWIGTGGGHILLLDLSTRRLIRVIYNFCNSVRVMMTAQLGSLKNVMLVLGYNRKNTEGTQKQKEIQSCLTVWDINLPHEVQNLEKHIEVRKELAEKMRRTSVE", "assay": "Adapta assay, inhibition of G2019S mutant LRRK2 kinase fragment", "assay_type": "biochemical", "settings": "100 μM ATP, FIG. 3B", "method": "Duplicate assay mixtures are set up each in a 10 μL volume containing 17 ng (8 nM) of human LRRK2 protein fragment encompassing amino acids 1326 to 2527, obtained as a recombinant GST fusion protein [according to Jaleel et al., Biochem. J. 405, 307-317 (2007)], 200 μM LRRKtide ([…]peptide), 25 mM Tris, pH 8.2, 5 mM MgCl2, 0.5 mM EGTA, 100 μM ATP, 0.005% Brij-35, 1% DMSO, and compound 3 in a series of concentrations (OnM, 0.1 nM, 0.3 nM, 1 nM, 3 nM, 10 nM, 30 nM, 100 nM, 300 nM, 1000 nM). After incubation for 1 hr at ambient temperature, 5 μL of the Adapta® Assay Detection Mix (Invitrogen) is added, containing 30 mM EDTA to stop the kinase reaction, 30 nM of the Eu-labelled anti-ADP antibody, and the AlexaFluor°-ADP conjugate. […]\nThe assays conducted in a 384 well microplate are then read out in a fluorescence microplate reader to establish the ratio of emissions at 665 nm (ADP-tracer) and at 615 nm (Eu-antibody) as a measure of ADP concentration by virtue of Fluorescence Resonance Energy Transfer (FRET). The conversion in % of ATP into ADP by the kinase reaction in each well is determined from the ADP/ATP standard curve, and means are formed from each duplicate assay well. […]\nInhibition is determined in the same way as in example 2, except that due to the higher specific activity […] of the mutant aa1326-2527 kinase fragment are used in the assays"}
{"smiles": "CNC(=O)[C@@]1(N)CC2OC1(C)n1c3ccccc3c3c4c(c5c6ccccc6n2c5c31)C(=O)NC4", "note": "(stereo partly shown) [Compound 3]", "values": [{"measurement": "IC50 relative to nominal kinase concentration, G2019S LRRK2", "value": "substantially below the nominal concentration of the kinase itself"}]}
